Tests used:
[1] = test system: reconstructed human epidermis containing melanocytes MelanoDerm™ MEL-300-B; experiment: Melanogenesis inhibition in reconstructed human epidermis containing melanocytes (MelanoDerm); assay type: cell-based; details: 14 days; for Melanin content [% control, mean ± SD]: 7 applications; for Viability [% control, mean ± SD]: MTT
Method: (§1) The research was carried out on reconstructed human epidermis containing melanocytes MelanoDerm™ MEL-300-B from MatTek (Bratislava, Slovakia). The ratio of keratinocytes to melanocytes in the epidermis used is 10:1. Only medium purchased from the same manufacturer (EPI-100-NMM-113) was used to culture the epidermis during the experiments. Once the epidermis was obtained, it was transferred to 12-well plates containing 5 mL of medium/well. Plates were used to enable proper contact of the lower parts of the inserts with the substrate (so-called hanging-top plate). Solutions of the compounds were prepared immediately before their application. The solutions were applied to the inserts using a positive displacement pipette and then distributed using a sterile glass bulb headed Pasteur pipette. The application was repeated every 48 hours, a total of 7 applications were performed. Before the next application, each insert was rinsed with sterile DPBS and dried with a sterile cotton buds. The application was also accompanied by a change of the medium. […] The epidermis was cultured in an incubator ensuring appropriate humidity, temperature (37 °C) and CO2 concentration (5%).
The experiment was conducted for 14 days. After this time, the inserts were rinsed with DPBS and dried with a cotton swab. For the selected pool of inserts, tissue viability was assessed using the MTT (Thiazolyl Blue Tetrazolium bromide) test, the remaining ones were used to determine the amount of melanin. To assess viability, the inserts were transferred to 24-well plate containing 0.3 mL of DMEM medium with 1 mg/mL MTT and incubated for 3 hours in an incubator. The epidermis was then placed in 2 mL of isopropanol and the resulting formazan was extracted for 2 hours at room temperature. The absorbance of the samples was measured at 570 nm in a microplate reader and correlated with the absorbance of the control by the formula: % Viability = [OD (570 nm) for test compound/OD (570 nm) for control] × 100. To determine the amount of melanin, the inserts were incubated in 5% sodium bicarbonate for 30 min, then dried and placed in 0.5 mL of Solvable™ reagent, which caused complete lysis of the epidermis. After heating at 95 °C, the absorbance of the samples was measured at 405 nm in a microplate reader. On this basis, the reduction in the amount of melanin was calculated in relation to the control sample. The absorbance results were also correlated with a standard curve for synthetic melanin. […] Table 5. Viability and melanin content in the MelanoDerm epidermis after application of the tested samples, calculated on the basis of absorbance measurements.
as §1, with “Only media” for “Only medium”, “cotton bud.” for “cotton buds.”
The experiment was conducted for 14 days. After this time, the inserts were rinsed with DPBS and dried with a cotton bud. […]

Primary melanocytes = experiment: Safety, LDH test in primary melanocytes; assay type: cell-based; details: 48 hours, positive control Triton X-100
Method: In order to test the safety of the compounds, both normal human cells were used: keratinocytes (HaCaT), fibroblasts (BJ), primary melanocytes that occur in the skin, as well as human cancer cells: the hepatocarcinoma line HepG2 and the neuroblastoma line SH-SY5Y, which are considered a model for the assessment of hepatocytotoxicity and neurocytotoxicity. The concentrations of the tested compounds in the range of 250-100 µM were used in the studies. The cell lines used in the research were purchased from the American Type Culture Collection (ATCC) and were cultured in media recommended by the manufacturer with the addition of FBS and antibiotics in an incubator ensuring appropriate culture conditions, i.e. humidity, temperature and CO2 concentration. Cells were seeded into multiwell plates and incubated with the test compounds for 48 hours. After this time, MTT and LDH tests were performed to assess cell viability. The MTT test is based on the ability to transform the substrate: [3-(4,5-dimethyl-2-thiazolyl)-2,5-diphenyl-2H-tetrazolium bromide into a colored product only by living cells. The absorbance at 570 nm, which corresponds to the absorption maximum for the product, is directly proportional to cell viability. The LDH test is based on testing the activity of the enzyme lactate dehydrogenase in the culture medium, which is released from cells as a result of damage to the cell membrane, e.g. as a result of cell death. Triton X-100 was used as a positive control in the test. The determination is colorimetric, the substrate is transformed by the released enzyme into a colored product, an increase in absorbance indicates a larger amount of the released enzyme, and thus confirms greater damage to cell membranes. Tables 7 and 8 present the results obtained, which correspond to the viability of cells incubated with the compounds in relation to the viability of cells constituting a control sample, i.e. incubated with the solvent (DMSO) at the same concentration as in the case of the groups tested in the MTT test or in relation to the results obtained for the Triton X-100 positive control in the LDH test. They indicate that the compounds are safe at the concentrations tested. Table 7. Viability of tested normal human cell lines: keratinocytes (HaCaT), fibroblasts (BJ) and primary melanocytes after incubation with the tested compounds - determination in the MTT test (% of solvent control ± SD) and LDH (percentage of positive control - Triton X-100.

SMILES	Melanin content [% control, mean ± SD] ([1]; 1.0% in 50% PEG (10 µL)) [% control]	Viability [% control, mean ± SD] ([1]; 1.0% in 50% PEG (10 µL)) [% control]	Primary melanocytes LDH (Primary melanocytes; 100 µM)	Primary melanocytes LDH (Primary melanocytes; 150 µM)	Primary melanocytes LDH (Primary melanocytes; 200 µM)	Primary melanocytes LDH (Primary melanocytes; 250 µM)	Melanin content [% control, mean ± SD] ([1]; 1.0% in 50% PEG (25 µL)) [% control]	Viability [% control, mean ± SD] ([1]; 1.0% in 50% PEG (25 µL)) [% control]	Melanin content [% control, mean ± SD] ([1]; 2.0% in 50% PEG (25 µL)) [% control]	Viability [% control, mean ± SD] ([1]; 2.0% in 50% PEG (25 µL)) [% control]
O=C(/C=C/c1ccccc1)NCCCCCO [Compound A-133, (2E)-N-(5-hydroxypentyl)-3-phenylprop-2-enamide]	98.62±9.47	101.22±6.52	4.68 percentage of positive control	7.59 percentage of positive control	16.71 percentage of positive control	19.45 percentage of positive control				
O=C(/C=C/c1ccc(Cl)cc1)NCCCCCO [Compound A-111, (2E)-3-(4-chlorophenyl)-N-(5-hydroxypentyl)prop-2-enamide]	94.95±3.57	101.45±6.45	3.31 percentage of positive control	4.95 percentage of positive control	13.38 percentage of positive control	18.41 percentage of positive control	81.23±6.53	85.67±7.25	67.26±9.18	106.64±7.78
O=C(/C=C/c1ccc(Cl)cc1)NCCO [H-427/21, (2E)-3-(4-chlorophenyl)-N-(2-hydroxyethyl)prop-2-enamide]			3.93 percentage of positive control	4.44 percentage of positive control	4.31 percentage of positive control	15.01 percentage of positive control				
O=C(/C=C/c1ccccc1)NCCCCCCO [H-425/21, (E)-N-(6-hydroxyhexyl)cinnamic acid amide]	102.98±4.25	87.16±6.30								
O=C(/C=C/c1ccc(Cl)cc1)NCCCO [H-330/21, (2E)-3-(4-chlorophenyl)-N-(3-hydroxypropyl)prop-2-enamide]			5.63 percentage of positive control	13.09 percentage of positive control	10.91 percentage of positive control	18.10 percentage of positive control				
Cc1ccc(/C=C/C(=O)NCCCCCO)cc1 [H-415/21, (2E)-N-(5-hydroxypentyl)-3-(4-methylphenyl)prop-2-enamide]			4.22 percentage of positive control	6.01 percentage of positive control	8.34 percentage of positive control	14.94 percentage of positive control				
